Laboratory results from US5514694A, “Peptidyl ketoamides” (Georgia Tech Research Corp, priority 1993, dated 1996).
Like-named read-outs stand apart in the source and are kept apart here.

Experiments:
Type in all cases: biochemical
calpain II from rabbit = test: Calpain II inhibition, Suc-Leu-Tyr-AMC hydrolysis (KI); settings: read-out: KI Cal II
Protocol: (§1) HEPES, heparin, and A23187 were obtained from Calbiochem. Suc-Leu-Tyr-AMC and chromogenic substrates were obtained from Sigma. Calpain I was purified from human erythrocytes according to the method of Kitahara (Kitahara et al., J. Biochem. 95, 1759-1766) omitting the Blue-Sepharose step. Calpain II from rabbit muscle and cathepsin B were purchased from Sigma. Papain was purchased from Calbiochem.
(§2) Peptide α-ketoamides were assayed as reversible enzyme inhibitors. Various concentrations of inhibitors in Me2 SO were added to the assay mixture which contained buffer and substrate. The reaction was started by the addition of the enzyme and the hydrolysis rates were followed spectrophotometrically or fluorimetrically.
(§3) Calpain I from human erythrocytes and calpain II from rabbit were assayed using Suc-Leu-Tyr-AMC Sasaki et al., J. Biol. Chem. 259, 12489-12494 (1984); incorporated herein by reference!, and the AMC (7-amino-4-methylcoumarin) release was followed fluorimetrically (excitation at 380 nm, and emmision at 460 nm). Calpains were assayed in 25 mM Tris pH=8.0, 10 mM CaC12. Fluorescence was followed using a Gilson FL-1A fluorometer or a Perkin-Elmer 203 Fluorescence spectrometer. Cathepsin B was assayed in 20 mM sodium acetate pH=5.2, 0.5 mM dithiothreitol using Bz-Phe-Val-Arg-p-nitroanilide as substrate. Alternately, cathepsin B was assayed with Z-Arg-Arg-AFC Barrett and Kirschke, Methods Enzymol. 80, 535-561 (1981); incorporated herein by reference!, and the AFC (7-amino-4-trifluoromethylcoumarin) release was followed fluorimetrically (excitation at 400 nm and emmision at 505 nm). Papain was assayed in 100 mM KPO4, 1 mM EDTA, 2.5 mM cysteine pH=6.0 using Bz-Arg-AMC or Bz-Arg-NA Kanaoka et al., Chem. Pharm. Bull. 25, 3126-3128 (1977); incorporated herein by reference! as a substrate. The AMC (7-amino-4-methylcoumarin) release was followed fluorimetrically (excitation at 380 nm, and emmision at 460 nm). Enzymatic hydrolysis rates were measured at various substrate and inhibitor concentrations, and KI values were determined by either Lineweaver-Burk plots or Dixon plots.
(§4) A 0.1M Hepes, 0.5M NaCl, pH 7.5 buffer was utilized for human leukocyte elastase (HLE), porcine pancreatic elastase (PPE), chymotrypsin and cathepsin G. A 0.1 Hepes, 0.01 M CaCl2, pH 7.5 buffer was utilized for trypsin, plasmin, and coagulation enzymes. A 50 mM Tris.HCl, 2 mM EDTA, 5 mM cysteine, pH 7.5 was used as a buffer for papain. A 88 mM KH2 PO4, 12 mM Na2 HPO4, 1.33 mM EDTA, 2.7 mM cysteine, pH 6.0 solution was used as a buffer for cathepsin B. A 20 mM Hepes, 10 mM CaCl2, 10 mM mercatoethanol, pH 7.2 buffer was utilized for calpain I and calpain II.

[1] = target: T1, Calpain I from human erythrocytes (Homo sapiens, UniProt P07384); test: Calpain I inhibition, Suc-Leu-Tyr-AMC hydrolysis (KI); settings: for Ki: read-out: KI Cal I
T1 construct: Calpain I was purified from human erythrocytes; from tissue; host or cells: human erythrocytes
T1 sequence (P07384 1-714): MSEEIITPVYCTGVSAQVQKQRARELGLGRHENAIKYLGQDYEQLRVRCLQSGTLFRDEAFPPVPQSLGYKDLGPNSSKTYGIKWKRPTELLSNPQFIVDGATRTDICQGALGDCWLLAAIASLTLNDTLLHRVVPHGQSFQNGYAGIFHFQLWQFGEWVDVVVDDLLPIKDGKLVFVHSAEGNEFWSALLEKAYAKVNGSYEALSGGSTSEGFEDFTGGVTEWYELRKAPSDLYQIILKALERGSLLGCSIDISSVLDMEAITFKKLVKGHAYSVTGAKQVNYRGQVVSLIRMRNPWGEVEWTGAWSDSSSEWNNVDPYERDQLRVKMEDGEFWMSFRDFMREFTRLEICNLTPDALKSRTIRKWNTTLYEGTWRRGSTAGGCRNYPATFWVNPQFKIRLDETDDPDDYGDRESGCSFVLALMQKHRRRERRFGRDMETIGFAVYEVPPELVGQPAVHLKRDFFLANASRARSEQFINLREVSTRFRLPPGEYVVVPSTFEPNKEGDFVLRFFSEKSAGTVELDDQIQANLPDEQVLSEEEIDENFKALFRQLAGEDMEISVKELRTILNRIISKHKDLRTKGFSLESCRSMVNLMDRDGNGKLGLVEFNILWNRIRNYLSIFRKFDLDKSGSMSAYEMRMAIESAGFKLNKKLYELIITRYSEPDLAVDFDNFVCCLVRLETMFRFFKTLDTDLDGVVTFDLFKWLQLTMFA
T1 sequence (P04632 1-268 partner): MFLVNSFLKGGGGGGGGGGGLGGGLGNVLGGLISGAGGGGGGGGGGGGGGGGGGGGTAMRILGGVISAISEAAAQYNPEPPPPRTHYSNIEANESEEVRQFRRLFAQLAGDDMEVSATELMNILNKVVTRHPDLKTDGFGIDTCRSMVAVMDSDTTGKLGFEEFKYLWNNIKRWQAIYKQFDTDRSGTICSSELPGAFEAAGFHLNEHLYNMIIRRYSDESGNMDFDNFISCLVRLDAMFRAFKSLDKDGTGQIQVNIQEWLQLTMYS
Protocol: as §1, §2, §3, §4

[2] = target: T2, human leukocyte elastase (HLE) (Homo sapiens, UniProt P08246); test: HLE inhibition, MeO-Suc-Ala-Ala-Pro-Val-NA hydrolysis; settings: Table 4, Z-Leu--AA--CONH-R
T2 sequence (P08246 30-267): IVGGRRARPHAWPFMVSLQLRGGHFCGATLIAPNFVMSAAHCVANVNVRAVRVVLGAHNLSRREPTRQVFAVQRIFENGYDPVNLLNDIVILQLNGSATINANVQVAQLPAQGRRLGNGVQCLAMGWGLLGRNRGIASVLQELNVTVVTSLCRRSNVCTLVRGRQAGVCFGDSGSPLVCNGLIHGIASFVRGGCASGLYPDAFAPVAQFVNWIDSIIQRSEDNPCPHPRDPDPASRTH
Protocol: as §2, §4
HLE and PPE were assayed with MeO-Suc-Ala-Ala-Pro-Val-NA and Suc-Ala-Ala-Ala-NA, respectively Nakajima et al., J. Biol. Chem. 254, 4027-4032 (1979); incorporated herein by reference!. Human leukocyte cathepsin G and chymotrypsin Aα were assayed with Suc-Val-Pro-Phe-NA Tanaka et al., Biochemistry 24, 2040-2047 (1985); incorporated herein by reference!. The hydrolysis of peptide 4-nitroanilides was measured at 410 nm ε410 =8800 M^-1 cm^-1; Erlanger et al., Arch. Biochem. Biophys. 95, pp 271-278 (1961); incorporated herein by reference!. Trypsin, thrombin, human plasma kallikrein, porcine pancreatic kallikrein, human factor XIa, and human plasmin were assayed with Z-Arg-SBzl or Z-Gly-Arg-SBu-i McRae et al., Biochemistry 20, 7196-7206 (1981); incorporated herein by reference!. All peptide thioester hydrolysis rates were measured with assay mixtures containing 4,4'-dithiodipyridine ε324 =19800 M^-1 cm^-1; Grasetti & Murray, Arch. Biochem. Biophys. 119, 41-49 (1967); incorporated herein by reference!.

cathepsin B = target: T3, cathepsin B (Homo sapiens, UniProt P07858); test: Cathepsin B inhibition (KI); settings: Table 1, Z-Leu--AA--CONHR; read-out: KI Cat B
T3 construct: purchased Sigma
Protocol: as §1, §2, §3, §4

[3] = Table 2, Z-Leu--AA--CONH--CH2 CH(OH)-R

CCC(NC(=O)C(CC(C)C)NC(=O)C(c1ccccc1)c1ccccc1)C(=O)C(=O)NCc1ccccn1 (stereo not drawn) [Ph2 CH-CO-Leu-Abu-CONH-CH2 -2-pyridyl, Ph2 CHCO-Leu-Abu-CONH-2-CH2 -Pyridyl]
Ki (calpain II from rabbit; Table 3, M1 CO-Leu--AA--CONH-R): 90 nM

CC(C)CC(NC(=O)C(c1ccccc1)c1ccccc1)C(=O)NC(Cc1ccccc1)C(=O)C(=O)NCC(O)c1ccccc1 (stereo not drawn) [Ph2 CH-CO-Leu-Phe-CONH-CH2 CH(OH)Ph, Ph2 CHCO-Leu-Phe-CONH--CH2 CH(OH)Ph]
Ki ([1]; Table 3, M1 CO-Leu--AA--CONH-R): 10000 nM
Ki (calpain II from rabbit; Table 3, M1 CO-Leu--AA--CONH-R): 730 nM

CCC(NC(=O)C(CC(C)C)NC(=O)OCc1ccccc1)C(=O)C(=O)NCCc1ccccn1 (stereo not drawn) [Z-Leu-Abu-CONH-(CH2)2 -2-pyridyl, Z-Leu-Abu-CONH--(CH2)2 -2-Pyridyl]
Ki ([1]; Table 1, Z-Leu--AA--CONHR): 410 nM
Ki (calpain II from rabbit; Table 1, Z-Leu--AA--CONHR): 470 nM

CCC(NC(=O)C(CC(C)C)NC(=O)OCc1ccccc1)C(=O)C(=O)NCCc1c[nH]c2ccccc12 (stereo not drawn) [Z-Leu-Abu-CONH-(CH2)2 -3-indolyl, Z-Leu-Abu-CONH--(CH2)2 -3-Indolyl]
Ki ([1]; Table 1, Z-Leu--AA--CONHR): 300 nM
IC50 [2]: 48000 nM
Ki (calpain II from rabbit; Table 1, Z-Leu--AA--CONHR): 50 nM

CCC(NC(=O)[C@H](CC(C)C)NC(=O)OCc1ccccc1)C(=O)C(=O)NCCN1CCOCC1 (stereo partly drawn) [Z-Leu-Abu-CONH-(CH2)2 -4-morpholinyl, Z-Leu-Abu-CONH--(CH2)2 -4-Morpholinyl]
Ki ([1]; Table 1, Z-Leu--AA--CONHR): 1000 nM
Ki (cathepsin B): 2500 nM

CCC(NC(=O)C(CC(C)C)NC(=O)OCc1ccccc1)C(=O)C(=O)NCCNC(=O)CCCCC1SCC2NC(=O)NC21 (stereo not drawn) [Z-Leu-Abu-CONH-(CH2)2 NH-biotinyl, Z-Leu-Abu-CONH--(CH2)2NH-Biotinyl]
Ki ([1]; Table 1, Z-Leu--AA--CONHR): 650 nM
IC50 [2]: 38000 nM

CC[C@H](NC(=O)[C@H](CC(C)C)NC(=O)OCc1ccccc1)C(=O)C(=O)NCCOCCO [Z-Leu-Abu-CONH-(CH2)2 O(CH2)2 OH, Z-Leu-Abu-CONH--(CH2)2 O(CH2)2 OH]
Ki (cathepsin B): 2000 nM

CCC(NC(=O)C(CC(C)C)NC(=O)OCc1ccccc1)C(=O)C(=O)NCC(O)c1ccc(OCc2ccccc2)c(OCc2ccccc2)c1 (stereo not drawn) [Z-Leu-Abu-CONH--CH2 CH(OH)C6 H3 (3,4-(OCH2 Ph)2)]
Ki [1, 3]: 230 nM
IC50 [2]: 64000 nM

CCC(NC(=O)C(CC(C)C)NC(=O)OCc1ccccc1)C(=O)C(=O)NCC(O)c1cccc(Oc2cccc(C(F)(F)F)c2)c1 (stereo not drawn) [Z-Leu-Abu-CONH--CH2 CH(OH)C6 H4 -3-OC6 H4 (3-CF3)]
Ki [1, 3]: 70 nM
IC50 [2]: 30000 nM

CCC(NC(=O)C(CC(C)C)NC(=O)OCc1ccccc1)C(=O)C(=O)NCc1nc2c(c(=O)n(C)c(=O)n2C)n1C (stereo not drawn) [Z-Leu-Abu-CONH-CH2 -8-caffeine, Z-Leu-Abu-CONH--CH2 -8-Caffeine]
Ki ([1]; Table 1, Z-Leu--AA--CONHR): 32000 nM
IC50 [2]: 156000 nM

CCC(NC(=O)C(CC(C)C)NC(=O)OCc1ccccc1)C(=O)C(=O)NCC(O)c1cccc(Oc2ccccc2)c1 (stereo not drawn) [Z-Leu-Abu-CONH-CH2 CH(OH)-C6 H4 (3-OPh), Z-Leu-Abu-CONH--CH2 CH(OH)C6 H4 (3-OPh)]
Ki [1, 3]: 900 nM
IC50 [2]: 45000 nM

CCC(NC(=O)C(CC(C)C)NC(=O)OCc1ccccc1)C(=O)C(=O)NCC(O)c1ccc(OC)cc1 (stereo not drawn) [Z-Leu-Abu-CONH-CH2 CH(OH)-C6 H4 (4-OCH3), Z-Leu-Abu-CONH--CH2 CH(OH)C6 H4 (4-OCH3)]
Ki [1, 3]: 240 nM
IC50 [2]: 32000 nM

CCC(NC(=O)C(CC(C)C)NC(=O)OCc1ccccc1)C(=O)C(=O)NCC(O)c1ccc(Oc2ccccc2)cc1 (stereo not drawn) [Z-Leu-Abu-CONH-CH2 CH(OH)-C6 H4 (4-OPh), Z-Leu-Abu-CONH--CH2 CH(OH)C6 H4 (4-OPh)]
Ki [1, 3]: 100 nM
IC50 [2]: 28000 nM

CCCC(NC(=O)C(CC(C)C)NC(=O)OCc1ccccc1)C(=O)C(=O)NCc1ccccn1 (stereo not drawn) [Z-Leu-Nva-CONH-CH2 -2-pyridyl, Z-Leu-Nva-CONH--CH2 -2-Pyridyl]
inhibition of calpain I, in words [1]: best inhibitor of calpain I
Ki ([1]; Table 1, Z-Leu--AA--CONHR): 19 nM
Ki (calpain II from rabbit; Table 1, Z-Leu--AA--CONHR): 120 nM

CCCC(NC(=O)C(CC(C)C)NC(=O)OCc1ccccc1)C(=O)C(=O)NCC(O)c1ccccc1 (stereo not drawn) [Z-Leu-Nva-CONH-CH2 CH(OH)-Ph, Z-Leu-Nva-CONH--CH2 CH(OH)Ph]
Ki [1, 3]: 7800 nM
Ki (calpain II from rabbit; [3]): 11000 nM

Z-Leu-Abu-CONH--(CH2)2 C6 H4 (4-OH) [Z-Leu-Abu-CONH-(CH2)2 C6 H4 (4-OH)]
Ki ([1]; Table 1, Z-Leu--AA--CONHR): 380 nM
Ki (calpain II from rabbit; Table 1, Z-Leu--AA--CONHR): 60 nM

Z-Leu-Abu-CONH--CH2 CH(OH)C6 F5 [Z-Leu-Abu-CONH-CH2 CH(OH)-C6 F5]
inhibition of calpain I, in words [1]: best inhibitor for calpain I
Ki [1, 3]: 50 nM
IC50 [2]: 44000 nM
